# Laboratory results: article PMC2862740, “Furin Targeted Drug Delivery for Treatment of Rhabdomyosarcoma in a Mouse Model” (PLoS ONE, 2010)
# Positions of bridges follow the written chain, without caps; N, C: chain ends. No end group written: not given here. *: point of attachment. FITC = O=C1OC2(c3ccc(O)cc3Oc3cc(O)ccc32)c2ccc(NC(=S)*)cc21
# Assays:
# [1] = tested on: RD cells; experiment: competition of phage RMS-P3 binding by synthetic peptide; assay type: cell-based; details: for regression slope b of phage RMS-P3 binding versus peptide concentration: least-squares regression, N = 18, RMS-P3 r^2 = 0.889, p<0.0001, control r^2 = 0.0002, p = 0.959
# Procedure: Figure 1 Validation of selected phages binding on RMS cells in vivo and in vitro. (A) Quantification of binding of single phage clones to different cell lines. Six phages selected from in vitro and in vivo screenings were validated individually in binding assays to three RMS cell lines (embryonal RMS: RD; alveolar RMS: Rh30 and Rh4) as well as to normal myoblasts (SkMC-c) and fibroblast cells (MRC-5). Phage clones are ordered according to the frequency of occurrence. Binding was calculated over non-recombinant T7, depicted are mean values ± SD of three independent experiments. (B) RMS-P3 and RMS-P6 phage distribution in RD mouse xenografts. Homing of phages to tumor was compared to control organs. Binding was normalized over phage T7 and tissue weight. Mean values ± SD of four independent experiments are shown. Numerical values for tumor to organ ratios are indicated above the bars. (C) Validation of RMS-P3 peptide sequence by competition of phage binding. 10^6 RD cells were incubated for 30 min with increasing concentrations of RMS-P3 peptide ([…]) or control peptide ([…]). Then, phages (10^9 pfu) were added for 1 h. Phage binding was normalized over non-recombinant T7. Data are presented as percentage of maximal phage binding obtained in the absence of synthetic peptide. Error bars indicate mean ± SD from three independent experiments. […] TEXT PRINTED IN THE PICTURE: (B) RMS-P6: tumor: 1; muscle: 1/6; kidney: 1/8; brain: 1/28; skin: 1/12 | (B) RMS-P3: tumor: 1; muscle: 1/24; kidney: 1/15; brain: 1/12; skin: 1/10 DOUBTS OF THE COPYIST ABOUT THIS PICTURE: Panel B: the picture prints no measure for the numbers over the bars. Each tissue name was assigned from the bar fill and the order of the printed key. / RMS-P6, brain: 1/28, the last digit may be 8 or 6 (small print)
# (§1) 10^6 RD cells were detached (2.5 mM EDTA-PBS) and reconstituted (DMEM/1% BSA). Cells were preincubated with 100 µl of peptides (RMS-P3 or RMS-Pctrl) or general PC inhibitor decanoyl-Arg-Val-Lys-Arg-chloromethylketone (Dec-RVKR-cmk, Calbiochem, Switzerland) for 30 minutes. Phages (10^9 pfu) were added for 1 hour at RT under continuous rotation. Cells were washed four times with DMEM/1% BSA; titer of bound phage was determined by titration with BLT5403 and calculated over non-recombinant T7.
# [2] = tested on: RD xenografts; experiment: targeted doxorubicin treatment of RD xenografts
# Procedure: Five groups of 6 mice were treated when tumors reached 60 mm^3 in size. Treatment consisted of weekly tail vein injections for 30 days.
# CD1-Nu/nu mice (4 to 6 weeks old, Charles River, Germany) were used for the in vivo screening, and 6 weeks old NOD/SCID IL2R γ-/- mice were used for all other studies. RMS cells (5×10^6 in 150 µl HBSS) were injected subcutaneously into the dorsolateral flank of the mice. Both diameters (d) of the spherical tumors were measured twice weekly and the volume was calculated with the general formula V = (4/3) πr^3, whereby r = (d1+d2)/4. Prior to the experiment, mice were anesthetized with 0.015 ml/g avertin by i.p. injection. 1 mg/ml of FITC-peptide in 250 µl PBS was injected by tail vein injection into mice bearing tumors 150 mm^3 in size. After 10 minutes circulation, mice were perfused, tumor and control organs were dissected and frozen in O.C.T. embedding medium (Leica Microsystems, Germany). 10 µm cryosections were washed with PBS, fixed for 15 minutes in ice-cold methanol and air-dried. Endothelial stainings were performed using rat monoclonal antibodies against mouse markers CD31 and MECA-32, both at the dilution of 1∶50 (BD biosciences, Switzerland). A rabbit polyclonal anti-furin-antibody (Abcam) was used at a dilution of 1∶1500. All corresponding secondary antibodies were AlexaFluor594-labeled IgGs (1∶300, Invitrogen).
# Mice with size-matched tumors (∼60 mm^3) were randomized into five groups and injected once per week for 4 consecutive weeks. […] Control groups received either a mixture of 10 µg free doxorubicin and peptide RMS-P3/RR, an equimolar solution of peptide RMS-P-3/RR alone or PBS alone. Concentrations were confirmed by measuring the absorbance of conjugated doxorubicin at 490 nm. […] Mice were monitored for weight and tumor growth for 30 days.
# [3] = tested on: RD xenograft tumors and control organs; experiment: FITC-peptide distribution in xenograft mice; assay type: in vivo, mouse; details: RD xenografts, i.v.
# Procedure: Figure 2 FITC-labeled RMS-P3 binding in vitro and distribution in vivo. (A) Visualization of FITC-RMS-P3 peptide binding in normal and cancer cells in vitro. Cultured myoblasts (SkMC-c), fibroblasts (MRC-5), RMS cells (RD) and breast carcinoma cells (MDA-MB 231) were incubated with 100 nM FITC-RMS-P3 peptide for 1 h at 37°C. Fluorescence microscopy of fixed cells is shown. (B) Living RD cells were incubated with FITC-RMS-P3 peptide, subsequently fixed and stained with giantin (red). Colocalization is shown in the merged picture by yellow. Blue staining (DAPI) indicates the nuclei. Magnifications: 40x, scale bars: 20 µm. (C) Distribution of FITC-RMS-P3 and control peptide FITC-RMS-Pctrl in mice xenografts of RD cells. FITC-RMS-P3 or control FITC-RMS-Pctrl peptide were injected i.v. and after 10 minutes of circulation, mice were perfused and tumor and control organs were collected. Cryosections were double-labeled with mouse endothelial vessels markers CD31 and MECA-32 (red). Nuclear staining by DAPI is shown in blue. Magnifications: 40x, scale bars: 20 µm.
# Figure 3 Identification of the receptor for RMS-P3. (A) Alanine-scan of the RMS-P3 sequence. RMS-P3 was mutated by replacing each amino acid residue with alanine (codon GCT). All phage mutants were tested individually for binding to RD cells in vitro. Mutated residues are indicated in bold. Phage binding was quantified over non-recombinant T7 and compared to the binding of wild type phage RMS-P3. Depicted are mean values ± SD of three independent experiments. […] (B) FITC-RMS-P3/RR and FITC-RMS-P3/AA distribution in RD xenograft mice. After tail vein injection of both FITC-RMS-P3/RR or control peptide RMS-P3/AA and circulation of 10 min, mice were perfused, tumors and control organs were dissected and FITC-peptide distribution (green) was evaluated in cryosections under fluorescence microscopy. Blood endothelial stainings (CD31 and MECA32) are shown in red, nuclear staining in blue (DAPI). Magnification: 20x, scale bar 50 µm. (C) Expression of proprotein convertases (PCs) measured by microarray profiling of 9 RMS cell lines and 30 RMS biopsy samples. Expression of PCs recognizing the cleavage site R(X)(R/K)(R/K) were considered. Each cell line or biopsy is represented by one data point. (D) Furin expression in different cell lines. Normal myoblasts (SkMC-c), fibroblasts (MRC-5), RMS cell lines (RD, Rh4, Rh30), furin-deficient colorectal carcinoma cells (LoVo) and furin-positive breast carcinoma cells (MBA-MB 231) were tested for furin expression by qRT-PCR (upper graph). […] Western blot (lower panels). Immature membrane-bound furin was detected at 103 kD, mature furin at 97 kD. PCNA was used as loading control.
# Figure 6 FITC-RMS-P3/RR and FITC-RMS-P3/AA distribution in mice bearing RD xenografts. Peptides were injected i.v. and after circulation the mice were perfused, tumors and control organs were removed and peptide distribution was evaluated on cryosections by fluorescence microscopy. Depicted are overlay images (B, upper left panel) and single channel pictures. FITC-peptide stainings (green), either furin or endothelial stainings (CD31, MECA32) in red and cell nuclei in blue (DAPI) are shown. Magnification: 40x, scale bars 50 µm.
# Supplementary file pone.0010445.s002.tif: Figure S2 Subcellular localization of FITC-RMS-P3 peptide. (A, B) FITC-RMS-P3/RR cell surface and intracellular localization. RD cells were incubated with 100 nM FITC-RMS-P3 peptide in vitro for 30 min at 4°C (A) or 37°C (B), respectively. Fixed cells were stained with undiluted 5.1H11 hybridoma supernatant against the human muscle-specific cell surface antigen N-CAM (red). A secondary rabbit anti-mouse Cy3 antibody (1∶300, Invitrogen) was used for detection. […] Cell nuclei were visualized with DAPI. Nuclei are indicated in grey. Magnification: 63x, scale bars: 20 µm. […]
# [4] = tested on: MRC-5-FUR cells; experiment: FITC-RMS-P3/RR binding to furin-transfected fibroblasts; assay type: cell-based; details: 100 nM, 1h at RT
# Procedure: Figure 4 RMS-P3/RR phage binding correlates with furin expression levels. (A) Binding of phage RMS-P3/RR to untransfected (MRC-5), furin-overexpressing (MRC-FUR) and empty vector transfected MRC-5 fibroblasts (MRC-EV) was tested in vitro. Phage binding was quantified over control T7. Results of three independent experiments ± SD are shown. Western blot of the same samples for furin expression and PCNA as loading control (A, lower panels) (B) Micrographs of MRC-5 fibroblasts (upper row) and MRC-5-FUR (lower row) cells incubated with 100 nM FITC-RMS-P3/RR (green) for 1h at RT, fixed and stained with the anti-furin-antibody Mon-152 (red). Nuclei are visualized by DAPI staining (blue). Yellow indicates overlap of the two stainings. Magnification: 40x; scale bars: 20 µm. (C) Inhibition of furin maturation in α1-PDX-transfected RD cells reduces phage binding. Phage RMS-P3/RR binding to untransfected RD, furin-inhibited RD-PDX and empty-vector transfected RD-EV cells was determined over non-recombinant T7 in three independent experiments (means ± SD). Expression of the inhibitor α1-PDX was confirmed by western blotting using 100 µg cell extract with antiserum against α1AT (C, lower panels). (D) Effect of the specific PC-inhibitor Dec-RVKR-cmk on phage RMS-P3/RR binding. […] Phage binding was calculated over T7. […]
# [5] = tested on: RD cells; experiment: competition of phage RMS-P3/RR binding by Dec-RVKR-cmk; assay type: cell-based
# Procedure: Figure 4 RMS-P3/RR phage binding correlates with furin expression levels. (A) Binding of phage RMS-P3/RR to untransfected (MRC-5), furin-overexpressing (MRC-FUR) and empty vector transfected MRC-5 fibroblasts (MRC-EV) was tested in vitro. Phage binding was quantified over control T7. Results of three independent experiments ± SD are shown. Western blot of the same samples for furin expression and PCNA as loading control (A, lower panels) (B) Micrographs of MRC-5 fibroblasts (upper row) and MRC-5-FUR (lower row) cells incubated with 100 nM FITC-RMS-P3/RR (green) for 1h at RT, fixed and stained with the anti-furin-antibody Mon-152 (red). Nuclei are visualized by DAPI staining (blue). Yellow indicates overlap of the two stainings. Magnification: 40x; scale bars: 20 µm. (C) Inhibition of furin maturation in α1-PDX-transfected RD cells reduces phage binding. Phage RMS-P3/RR binding to untransfected RD, furin-inhibited RD-PDX and empty-vector transfected RD-EV cells was determined over non-recombinant T7 in three independent experiments (means ± SD). Expression of the inhibitor α1-PDX was confirmed by western blotting using 100 µg cell extract with antiserum against α1AT (C, lower panels). (D) Effect of the specific PC-inhibitor Dec-RVKR-cmk on phage RMS-P3/RR binding. Competition was performed with increasing concentrations of Dec-RVKR-cmk and constant amounts of phage (10^9 pfu). Phage binding was calculated over T7.
# as §1
substance,measurement,setting,value
CMGTINTRTKKC (disulfide 1-12 (inferred)) [RMS-P3],IC50,"[1]; RD cells, 10^6, peptide preincubated 30 min, then phage 10^9 pfu 1 h at RT, three independent experiments, read-out: Half-maximal inhibition (IC50) of phage RMS-P3 binding",~100 nM
same,regression slope b of phage RMS-P3 binding versus peptide concentration,[1],−17.5
same,phage RMS-P3 binding remaining,"[1]; peptide at highest concentration tested (10 µM), percentage of maximal phage binding",7.5%
CSPNNTRRPNKC (disulfide 1-12 (inferred)) [RMS-Pctrl],effect on phage RMS-P3 binding,[1]; increasing peptide concentrations,no effect
same,regression slope b of phage RMS-P3 binding versus peptide concentration,[1],0.055
Doxorubicin-succinyl-GG-CMGTINTRTRRC (disulfide) [Dox-RMS-P3/RR],"tumor size compared to Dox alone, Dox and peptide, peptide alone or vehicle","[2]; 10 µg doxorubicin equivalent/week i.v., student's t-test, p<0.05",significantly smaller
same,increase in therapeutic efficacy compared to doxorubicin treatment alone,[2]; RMS in mice,two-fold
same,delay in tumor growth compared to untargeted drug delivery,"[2]; weekly tail vein injections, 30 days",significant delay in tumor growth
"FITC-RMS-P3/RR ({FITC}-GGCMGTINTRTRRC; also: cyclic peptide, ring type and places not given here)",peptide distribution to muscle,[3]; 10 min circulation,not in control organs
same,peptide uptake in kidney,[3]; 10 min circulation,not in control organs
same,peptide accumulation in tumor,"[3]; 10 min circulation, cryosections",Accumulation
same,peptide accumulation in tumor,"[3]; 10 min circulation, cryosections, listed as FITC-labeled RMS-P3/RR",strong peptide fluorescence
same,colocalization with furin around blood vessels in tumor,[3]; cryosections,furin colocalized with peptide RMS-P3/RR fluorescence
same,penetration into the tumor,"[3]; around blood vessels, cryosections",about 30 µm
same,colocalization of furin and FITC-peptide,[4]; anti-furin-antibody Mon-152,clear colocalization
same,FITC-peptide binding to MRC-5-FUR cells,[4]; in contrast to untransfected cells,strong peptide binding
decanoyl-Arg-Val-Lys-Arg-chloromethylketone [Dec-RVKR-cmk],phage RMS-P3/RR binding in presence of inhibitor,"[5]; 1 µM Dec-RVKR-cmk, RD cells, 30 min preincubation, phage 10^9 pfu 1 h",half-maximal
same,effect on binding of control phage RMS-P3/AA,"[5]; Dec-RVKR-cmk, RD cells",remained unaffected
same,regression slope b of phage RMS-P3/RR binding versus Dec-RVKR-cmk concentration,"[5]; least-squares regression, N = 18, r^2 = 0.883, p<0.0001",−17.9
